Among the data in patent publication US20150051206A1, “COMPOUNDS AND COMPOSITIONS AS C-KIT KINASE INHIBITORS” (IRM LLC, priority 2011, published 2015) are IC50 values, retold here.

T1 sequence (P10721 26-976): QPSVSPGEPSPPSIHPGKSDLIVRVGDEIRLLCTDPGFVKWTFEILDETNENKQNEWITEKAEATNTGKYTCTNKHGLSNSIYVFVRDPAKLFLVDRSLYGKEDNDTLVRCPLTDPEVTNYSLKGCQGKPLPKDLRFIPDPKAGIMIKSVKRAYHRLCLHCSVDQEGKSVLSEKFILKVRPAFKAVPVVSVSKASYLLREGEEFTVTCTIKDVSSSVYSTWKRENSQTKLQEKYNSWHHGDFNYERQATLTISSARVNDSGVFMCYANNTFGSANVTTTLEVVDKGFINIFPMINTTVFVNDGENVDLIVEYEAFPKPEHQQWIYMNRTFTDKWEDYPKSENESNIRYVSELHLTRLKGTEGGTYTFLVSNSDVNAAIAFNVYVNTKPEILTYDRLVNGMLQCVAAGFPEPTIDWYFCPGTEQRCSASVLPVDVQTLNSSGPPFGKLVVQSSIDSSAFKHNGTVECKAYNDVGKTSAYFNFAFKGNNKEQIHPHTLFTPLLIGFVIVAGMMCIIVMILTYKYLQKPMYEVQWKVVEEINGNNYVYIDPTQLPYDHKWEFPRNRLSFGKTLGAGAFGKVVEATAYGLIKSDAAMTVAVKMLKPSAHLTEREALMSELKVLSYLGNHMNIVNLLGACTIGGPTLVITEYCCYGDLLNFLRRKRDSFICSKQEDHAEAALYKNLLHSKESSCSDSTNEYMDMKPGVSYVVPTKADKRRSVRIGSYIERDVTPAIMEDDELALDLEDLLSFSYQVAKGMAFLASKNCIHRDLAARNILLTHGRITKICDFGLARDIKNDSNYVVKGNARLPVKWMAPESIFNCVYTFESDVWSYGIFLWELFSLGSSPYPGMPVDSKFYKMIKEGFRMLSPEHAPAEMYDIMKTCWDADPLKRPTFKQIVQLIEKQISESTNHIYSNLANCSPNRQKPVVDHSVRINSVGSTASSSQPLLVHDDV

The first assay has as its target T1, c-kit (Homo sapiens, UniProt P10721).
T1 construct: human Mo7e cells which endogenously express c-kit; endogenous in cells; host or cells: human Mo7e cells (promegakaryocytic leukemia line), stimulated with human recombinant SCF
Nature of the assay: Mo7e cell proliferation assay (SCF dependent proliferation). Format: cell-based. Particulars: Table 1; Mo7e cells stimulated with human recombinant SCF, 48 hours; 1% FBS. On the procedure:
Compounds of Formula (I) and Formula (II) provided herein were assayed to measure their capacity to inhibit c-kit and PDGFR kinases using the appropriate assay described below: c-Kit inhibition was evaluated using the Mo7e cell proliferation assay, and PDGFR inhibition was evaluated using the Rat A10 cell proliferation assay and the Human TG/HA-VSMC cell proliferation assay.
The compounds of Table 1 and Table 2 were tested for inhibition of SCF dependent proliferation using human Mo7e cells which endogenously express c-kit in a 384 well format. […] After 48 hours of incubation at 37° C., cell viability was measured by adding 25 uL of CellTiter Glo (Promega) to the cells and the luminescence was measured by a CLIPR CCD camera (Molecular Devices).
The IC50 value is given as that concentration of the test compound in question that provoke a response halfway between the baseline and maximum responses.
With `Cc1nc(-c2nc(-c3ccc(C)c(NC(=O)c4cnc5ccccn45)c3)no2)c(C(F)(F)F)o1` [F22, N-(2-methyl-5-{5-[2-methyl-5-(trifluoromethyl)-1,3-oxazol-4-yl]-1,2,4-oxadiazol-3-yl}phenyl)imidazo[1,2-a]pyridine-3-carboxamide], the IC50 – broadly, the concentration that inhibits the measured activity by half – came to 32 nM.
The same measure, in the same setting: the value for `Cc1ccc(-c2nc(-c3cccc(OC(F)(F)F)c3)no2)cc1NC(=O)c1cnc2ccccn12` [F6, N-(2-methyl-5-{3-[3-(trifluoromethoxy)phenyl]-1,2,4-oxadiazol-5-yl}phenyl)imidazo[1,2-a]pyridine-3-carboxamide] was 89 nM; that for `Cc1ccc(-c2nc(Nc3ccc(C)c(NC(=O)c4cnc5ccccn45)c3)no2)cn1` [F17, N-(2-methyl-5-{[5-(6-methylpyridin-3-yl)-1,2,4-oxadiazol-3-yl]amino}phenyl)imidazo[1,2-a]pyridine-3-carboxamide] was 2 nM; that for `Cc1ccc(-c2nc(-c3cccc(C(F)(F)F)c3)no2)cc1NC(=O)c1cnc2ccccn12` [F7, N-(2-methyl-5-{3-[3-(trifluoromethyl)phenyl]-1,2,4-oxadiazol-5-yl}phenyl)imidazo[1,2-a]pyridine-3-carboxamide] was 69 nM.
On the same count and under the same terms, the value for `Cc1ccc(-c2nc(-c3ccccc3)no2)cc1NC(=O)c1cnc2ccccn12` [F2, N-[2-methyl-5-(3-phenyl-1,2,4-oxadiazol-5-yl)phenyl]imidazo[1,2-a]pyridine-3-carboxamide] was 16 nM.
The same measure, in the same setting: the value for `Cc1ccc(Nc2noc(-c3ncccn3)n2)cc1NC(=O)c1cnc2ccccn12` [F19, N-(2-methyl-5-{[5-(pyrimidin-2-yl)-1,2,4-oxadiazol-3-yl]amino}phenyl)imidazo[1,2-a]pyridine-3-carboxamide] was 82 nM.

Still in this assay, the particulars now being: Table 1; Mo7e cells stimulated with human recombinant SCF, 48 hours; 20% FBS (values marked *).
Take `CCOc1cccc(-c2noc(-c3ccc(C)c(NC(=O)c4cnc5ccccn45)c3)n2)c1` [F8, N-{5-[3-(3-ethoxyphenyl)-1,2,4-oxadiazol-5-yl]-2-methylphenyl}imidazo[1,2-a]pyridine-3-carboxamide]: the IC50 was 66 nM.

Staying with this assay, now noted: Table 2; Mo7e cells stimulated with human recombinant SCF, 48 hours; 1% FBS.
For the compound `Cc1ccc(-c2noc(-c3nccn3C)n2)cc1NC(=O)c1cnc2ccccn12` [F49, N-{2-methyl-5-[5-(1-methyl-1H-imidazol-2-yl)-1,2,4-oxadiazol-3-yl]phenyl}imidazo[1,2-a]pyridine-3-carboxamide], the 50% inhibitory concentration (IC50) turned out to be 232 nM.
The same measure, in the same setting: the value for `Cc1ccc(-c2nc(-c3ccc(F)cc3)no2)cc1NC(=O)c1cnc2ccccn12` [F68] was greater than 10000 nM.
Still for that read-out and setting: the value for `Cc1ccc(-c2noc(-c3ccc(C)c(NC(=O)c4cnc5ccccn45)c3)n2)cc1F` [F69] was greater than 10000 nM; that for `Cc1ccc(-c2nc(-c3ccncc3)no2)cc1NC(=O)c1cnc2ccccn12` [F70] was greater than 10000 nM; that for `Cc1ccc(-c2noc(CCn3cncn3)n2)cc1NC(=O)c1cnc2ccccn12` [F58, N-(2-methyl-5-{5-[2-(1H-1,2,4-triazol-1-yl)ethyl]-1,2,4-oxadiazol-3-yl}phenyl)imidazo[1,2-a]pyridine-3-carboxamide] was 135 nM.
Still for that read-out and setting: the value for `Cc1ccc(-c2noc(CCn3ccnc3)n2)cc1NC(=O)c1cnc2ccccn12` [F57, N-(5-{5-[2-(1H-imidazol-1-yl)ethyl]-1,2,4-oxadiazol-3-yl}-2-methylphenyl)imidazo[1,2-a]pyridine-3-carboxamide] was 337 nM.
Turning to `Cc1cccc(-c2noc(-c3ccc(C)c(NC(=O)c4cnc5ccccn45)c3)n2)n1` [F28, N-(2-methyl-5-(3-(6-methylpyridin-2-yl)-1,2,4-oxadiazol-5-yl)phenyl)imidazo[1,2-a]pyridine-3-carboxamide], the IC50 was found to be 252 nM.
Still for that read-out and setting: for `Cc1ccc(-c2nc(-c3cccnc3)no2)cc1NC(=O)c1cnc2ccccn12` [F71] the value was greater than 10000 nM; for `Cc1ccc(-c2nc(-c3ccccn3)no2)cc1NC(=O)c1cnc2ccccn12` [F24, N-(2-methyl-5-(3-(pyridin-2-yl)-1,2,4-oxadiazol-5-yl)phenyl)imidazo[1,2-a]pyridine-3-carboxamide], 137 nM.
On to `Cc1ccc(-c2noc(Cn3ccnc3C)n2)cc1NC(=O)c1cnc2ccccn12` [F60, N-(2-methyl-5-{5-[(2-methyl-1H-imidazol-1-yl)methyl]-1,2,4-oxadiazol-3-yl}phenyl)imidazo[1,2-a]pyridine-3-carboxamide], for which the half-inhibitory concentration (IC50) is 445 nM.

The same assay, now with this note: Table 2; Mo7e cells stimulated with human recombinant SCF, 48 hours; 20% FBS instead of 1% FBS (values marked *).
Take `Cc1ccc(-c2nc(-c3cnccc3C)no2)cc1NC(=O)c1cnc2ccccn12` [F34, N-{2-methyl-5-[3-(4-methylpyridin-3-yl)-1,2,4-oxadiazol-5-yl]phenyl}imidazo[1,2-a]pyridine-3-carboxamide]: the IC50 came out at 139 nM.
The same measure, in the same setting: the value for `Cc1ccc(-c2noc(-c3ccccc3N3CCOCC3)n2)cc1NC(=O)c1cnc2ccccn12` [F51, N-(2-methyl-5-{5-[2-(morpholin-4-yl)phenyl]-1,2,4-oxadiazol-3-yl}phenyl)imidazo[1,2-a]pyridine-3-carboxamide] was 179 nM; that for `Cc1ccc(-c2noc(-c3ncccn3)n2)cc1NC(=O)c1cnc2ccccn12` [F48, N-{2-methyl-5-[5-(pyrimidin-2-yl)-1,2,4-oxadiazol-3-yl]phenyl}imidazo[1,2-a]pyridine-3-carboxamide] was 815 nM; that for `Cc1ccc(-c2nc(-c3ccc(Cl)cc3)no2)cc1NC(=O)c1cnc2ccccn12` [F27, N-{5-[3-(4-chlorophenyl)-1,2,4-oxadiazol-5-yl]-2-methylphenyl}imidazo[1,2-a]pyridine-3-carboxamide] was 274 nM.
Same read-out and setting: for `Cc1ccc(-c2nc(COc3ccccc3)no2)cc1NC(=O)c1cnc2ccccn12` [F32, N-{2-methyl-5-[3-(phenoxymethyl)-1,2,4-oxadiazol-5-yl]phenyl}imidazo[1,2-a]pyridine-3-carboxamide] the value was 249 nM.
For the compound `Cc1ccc(-c2nc(-c3cccnc3OCC(F)(F)F)no2)cc1NC(=O)c1cnc2ccccn12` [F38, N-(2-methyl-5-{3-[2-(2,2,2-trifluoroethoxy)pyridin-3-yl]-1,2,4-oxadiazol-5-yl}phenyl)imidazo[1,2-a]pyridine-3-carboxamide], the half-maximal inhibitory concentration (IC50) was 192 nM.
Still for that read-out and setting: the value for `COc1ccccc1Cc1noc(-c2ccc(C)c(NC(=O)c3cnc4ccccn34)c2)n1` [F45, N-(5-{3-[(2-methoxyphenyl)methyl]-1,2,4-oxadiazol-5-yl}-2-methylphenyl)imidazo[1,2-a]pyridine-3-carboxamide] was 116 nM.
For the compound `Cc1ccc(-c2noc(-c3ccccc3)n2)cc1NC(=O)c1cnc2ccccn12` [F47, N-[2-methyl-5-(5-phenyl-1,2,4-oxadiazol-3-yl)phenyl]imidazo[1,2-a]pyridine-3-carboxamide], the half-inhibitory concentration (IC50) turned out to be 196 nM.
For the compound `Cc1ccc(F)c(-c2noc(-c3ccc(C)c(NC(=O)c4cnc5ccccn45)c3)n2)c1` [F39, N-{5-[3-(2-fluoro-5-methylphenyl)-1,2,4-oxadiazol-5-yl]-2-methylphenyl}imidazo[1,2-a]pyridine-3-carboxamide], the half-maximal inhibitory concentration (IC50) is 104 nM.
Consider `Cc1ccc(-c2nc(-c3ccc(C)c(NC(=O)c4cnc5ccccn45)c3)no2)cn1` [F50, N-{2-methyl-5-[5-(6-methylpyridin-3-yl)-1,2,4-oxadiazol-3-yl]phenyl}imidazo[1,2-a]pyridine-3-carboxamide], for which the IC50 came out at 850 nM.
